Experimental data as given in patent US10117873B2, “6-amino-purin-8-one compounds” (GlaxoSmithKline LLC, priority 2008, dated 2018).

Columns and labels:
TNF-α = assay: Induction of TNF-α using fresh human PBMCs; format: cell-based; details: PBMC, 24 hr incubation, relative to 2 μM resiquimod control, read-out: mean pEC50 for induction of TNF-α (converted)
Experimental: (§1) Assay for the Induction of Interferon-α and TNF-α Using Fresh Human Peripheral Blood Mononuclear Cells (PBMCs)
(§2) Compounds were dissolved and serially diluted in DMSO to give 100× the required concentration range using a Biomek® 2000. 1 ul of test compound was transferred into 96-well tissue culture plates using a Biomek® FX. Each compound was assayed in duplicate for each donor. Each plate contained a dilution series of the TLR7/8 agonist resiquimod as standard and Column 11 contained 1 μl of 200 μM resiquimod (giving a 2 μM final concentration, used to define the approximate maximal response to resiquimod).
(§3) Blood samples from two human donors were collected into sodium heparin (10 U/ml). 25 ml volumes of whole blood were overlaid onto 15 mls Histopaque® in LEUCOSEP™ tubes which were centrifuged at 800 g for 20 min and the band at the plasma/histopaque interface carefully removed. The collected cells were centrifuged at 2500 rpm for 10 min and the pellet resuspended in 10 ml of media (RPMI 1640 (Low endotoxin) supplemented with 10% v/v foetal calf serum (FCS, low endotoxin) 100 U/ml penicillin G, 100 μg/ml streptomycin, 10 mM L-glutamine and 1× non-essential amino acids). A 1:20 dilution of the cells was prepared using trypan blue & the cells counted using a haemocytometer. The PBMCs were diluted to give a final concentration of 2×10^6/ml and 100 ul of this cells suspension was added to wells containing 1 μl of diluted test compound.
(§4) The cell preparations were incubated for 24 hr (37° C., 95% air, 5% CO2) after which a sample of the supernatant was removed using the Biomek® FX and assayed for both IFN-α and TNF-α using the MSD® (Mesoscale Discovery) electrochemiluminescence assay platform. The IFN-α assay was carried out similarly to that described above. The TNF-α assay was carried out as per kit instructions (Cat No K111BHB).
(§5) Cytokine released was expressed as a percentage of the 2 μM resiquimod control (column 11). This percentage was plotted against compound concentration and the pEC50 for the response determined by non-linear least squares curve fitting. For the IFN-α responses generally a 4 parameter logistic model was selected. For the TNF responses where a clear maximum response was obtained (i.e. a well defined plateau in the response was observed) then a 4 parameter model was generally used. If the upper asymptote of the curve wasn't well defined then the curve fitting was generally constrained to a maximal response of 100% (i.e. to the response to 2 μM resiquimod) or to the response of the highest concentration tested if this was greater than the resiquimod response. Some curves were bell shaped for one or both cytokines and the cytokine data on the down slope of the bell shaped response (i.e. concentrations above those giving the maximal response) were generally excluded from the fit, usually with the exception of the concentration immediately above the peak response. Curve fitting thus concentrated on the up slope of the dose response curve.

IFN-α = assay: Induction of Interferon-α using fresh human PBMCs; format: cell-based; details: PBMC, 24 hr incubation, relative to 2 μM resiquimod control, read-out: mean pEC50 for induction of IFN-α (converted)
Experimental: as §1, §2, §3, §4, §5

Interferon-α [1] = assay: Induction of Interferon-α using cryopreserved human PBMCs; format: cell-based; details: PBMC, 24 h incubation, normalized to 1 uM resiquimod, read-out: mean pEC50 for induction of Interferon-α (converted)
Experimental: Assay for the Induction of Interferon-α Using Cryopreserved Human Peripheral Blood Mononuclear Cells (PBMCs)
Compounds were dissolved in DMSO. Serial 2-fold dilutions with DMSO were prepared and 0.25 μl dispensed into 384-well clear Greiner polypropylene plates.
Blood samples of up to 200 ml were obtained from healthy human donors. Whole blood in 25 ml volumes was overlaid onto 15 ml Ficoll® gradients in Leucosep® tubes, and centrifuged at 1000 g for 20 min. Cells in the band at the plasma/Histopaque® interface were carefully removed and washed twice with PBS (centrifuged at 400 g for 5 min to harvest). The final pellet was resuspended in freezing medium (90% Heat-inactivated serum, 10% DMSO) to a cell concentration of 4×10^7 cells/ml. The resuspended cells were then cryopreserved (frozen) using a rate controlled freezer, and stored at −140° C. for up to 4 months.
Immediately prior to assay, vials of cryopreserved (frozen) PBMCs were thawed rapidly in a water bath at 37° C. A 1:10 dilution of the cells in trypan blue was prepared and counted. The PBMCs were then diluted in growth media [RPMI 1640 containing 10% fetal calf serum (invitrogen), Penicillin+[…] (Gibco cat. #25030-024, 1:50), L-Glutamine 2 mM, and 1000 units/ml recombinant human IFN-gamma (Preprotech catalogue #300-02)] to a density of 1×10^6 cells/ml, and 50 ul/well dispensed to 384-well clear Greiner polypropylene plates containing 0.25 μl DMSO or test compound in 0.25 μl DMSO. […] Plates were incubated for 24 h at 37° C. in 5% CO2.
A multi-isoform immunoassay was used to quantify IFN-α in PBMC supernatants. Rabbit polyclonal antibody against human IFN-α (catalogue number 31101, Stratech Scientific) was diluted 1:10000 in assay buffer (RPMI 1640 containing 10% fetal calf serum, Invitrogen) and 20 μl was added to each well of an MSD® (Meso-Scale® Discovery) single small-spot 384-well GAR (goat anti-rabbit antibody coated) plate.
The plate was incubated for 1 h at room temperature with vigorous shaking. Following three washes with PBS, 20 μl of cell supernatant were added to each well of the plate. The plate was then incubated for 1 h at room temperature with vigorous shaking. A pair of monoclonal antibodies to IFN-α (catalogue numbers 21100 and 21112, Stratech Scientific) were labelled with sulfo-TAG (MSD®), diluted 1:1000 in assay buffer and 20 μl added to each well of the plate. The plate was further incubated for 1 h at room temperature with vigorous shaking. Following three washes with PBS, 30 μl of ×2 T buffer (MSD®) was added to each well and the plate was read on an MSD® Sector 6000 plate reader.
Data were normalized to internal plate controls of 1 uM resiquimod (n=16) and DMSO (n=16). pEC50 values were derived by 4-parameter curve fit with IRLS in ActivityBase, from 11-point, two-fold serial dilution of test compounds.

Interferon-α [2] = assay: Induction of Interferon-α following intranasal dosing in the mouse; format: in vivo; details: female BALB/c mice, serum 2 hours after dosing, ELISA
Experimental: Assay for the Induction of Interferon-α Following Intranasal Dosing in the Mouse.
Compounds were dissolved in 0.2% Tween™ 80 in saline and administered intranasally (5 μl in total between the nostrils) to female BALB/c mice (n=6) under general anaesthesia. Animals were euthanased 2 hours after dosing and a terminal blood sample was taken and serum levels of Interferon-α measured using an ELISA assay.

IL-13 = assay: Allergen-driven cytokine assay using fresh human PBMCs from atopic volunteers (IL-13); format: cell-based; details: at 0.04 μM, compared to the allergen control; PBMCs from three allergic donors, Timothy Grass antigen
Experimental: (§6) Allergen-Driven Cytokine Assay Using Fresh Human Peripheral Blood Mononuclear Cells (PBMCs) from Atopic Volunteers
(§7) An assay based on co-culture of atopic human donor derived peripheral blood mononuclear cells (PBMCs) with allergen and test compounds was developed. After 5-6 days culture, cell supernatants were assayed for a range of cytokines.
(§8) Each compound was assayed in triplicate at all concentrations.
(§9) Defibrinated human blood from volunteers known to be allergic to Timothy grass was centrifuged at 2500 rpm for 15 minutes. The upper layer of serum was collected and heat-inactivated at 56° C. for 30 minutes (HI-autologous serum). The lower layer of cells was resuspended in 50 ml PBS (+Ca+Mg), 25 ml diluted blood were overlaid onto 20 ml Lymphoprep in 50 ml tubes then centrifuged at 2500 rpm for 20 minutes at RT. The band at the serum/Lymphoprep interface was carefully removed. The collected cells were washed with PBS and re-suspended at 4×10^6/ml in growth medium with HI-autologous serum. PBMCs were seeded at 0.4×10^6 cells/well in flat-bottomed 96 well plates in the presence of 10 ug/ml Timothy Grass antigen (Alk Abello) and test compounds at appropriate concentrations in a total volume of 200 ul.
(§10) Plates were incubated at 37° C. in 5% CO2 for up to 6 days. The cell medium from each well was harvested and stored at −20° C. prior to analysis.

IL-5 = assay: Allergen-driven cytokine assay using fresh human PBMCs from atopic volunteers (IL-5); format: cell-based; details: at 0.04 μM, compared to the allergen control; PBMCs from three allergic donors, Timothy Grass antigen
Experimental: as §6, §7, §8, §9, §10

EC50 (TNF-α) [nM] | EC50 (IFN-α) [nM] | SMILES | EC50 (Interferon-α [1]) [nM] | mean serum levels of Interferon-α (Interferon-α [2]) [pg/mL] | reduction of production of Th2 cytokine IL-13 (IL-13) [%] | reduction of production of Th2 cytokine IL-5 (IL-5) [%]
> 1000 | ≤ 10 | CCCCOc1nc(N)c2[nH]c(=O)n(CCCCCN3CCCCCC3)c2n1 [Example 11, 6-Amino-2-(butyloxy)-9-[5-(hexahydro-1H-azepin-1-yl)pentyl]-7,9-dihydro-8H-purin-8-one] | < 3160 | – | – | –
≥ 316 | ≤ 1 | CCC[C@H](C)Oc1nc(N)c2[nH]c(=O)n(CCCCCN3CCCCC3)c2n1 [Example 22, 6-Amino-2-{[(1S)-1-methylbutyl]oxy}-9-[5-(1-piperidinyl)pentyl]-7,9-dihydro-8H-purin-8-one] | < 3160 | 21029 | ≥ 50 | ≥ 50
> 3160 | < 31.6 | CCCCOc1nc(N)c2[nH]c(=O)n(CCCCCN3CCCC3)c2n1 [Example 9, 6-Amino-2-(butyloxy)-9-[5-(1-pyrrolidinyl)pentyl]-7,9-dihydro-8H-purin-8-one] | < 3160 | – | – | –
≥ 316 | ≤ 1 | CCCCOc1nc(N)c2[nH]c(=O)n(CCCCCCN3CCCCCC3)c2n1 [Example 15, 6-Amino-2-(butyloxy)-9-[6-(hexahydro-1H-azepin-1-yl)hexyl]-7,9-dihydro-8H-purin-8-one] | < 3160 | – | – | –
> 1000 | ≤ 10 | CCCCNc1nc(N)c2[nH]c(=O)n(CCCCN3CCCCCC3)c2n1 [Example 18, 6-Amino-2-(butylamino)-9-[4-(hexahydro-1H-azepin-1-yl)butyl]-7,9-dihydro-8H-purin-8-one] | < 3160 | – | – | –
≥ 316 | ≤ 1 | CCC[C@H](C)Oc1nc(N)c2[nH]c(=O)n(CCCCN3CCCCC3)c2n1 [Example 20, 6-Amino-2-{[(1S)-1-methylbutyl]oxy}-9-[4-(1-piperidinyl)butyl]-7,9-dihydro-8H-purin-8-one] | < 3160 | – | – | –
> 1000 | ≤ 10 | CCCCOc1nc(N)c2[nH]c(=O)n(CCCCCN3CCCCC3)c2n1 [Example 10, 6-Amino-2-(butyloxy)-9-[5-(1-piperidinyl)pentyl]-7,9-dihydro-8H-purin-8-one] | < 3160 | – | – | –
> 1000 | ≤ 10 | CCCCOc1nc(N)c2[nH]c(=O)n(CCCCCN3CCCCCCC3)c2n1 [Example 12, 6-Amino-2-(butyloxy)-9-[5-(hexahydro-1(2H)-azocinyl)pentyl]-7,9-dihydro-8H-purin-8-one] | < 3160 | – | – | –
≥ 316 | ≤ 1 | CCC[C@H](C)Oc1nc(N)c2[nH]c(=O)n(CCCCN3CCCCCC3)c2n1 [Example 21, 6-Amino-9-[4-(hexahydro-1H-azepin-1-yl)butyl]-2-{[(1S)-1-methylbutyl]oxy}-7,9-dihydro-8H-purin-8-one] | < 3160 | 20326 | – | –
≥ 316 | ≤ 1 | CCCCOc1nc(N)c2[nH]c(=O)n(CCCCCCN3CCCC3)c2n1 [Example 13, 6-Amino-2-(butyloxy)-9-[6-(1-pyrrolidinyl)hexyl]-7,9-dihydro-8H-purin-8-one] | < 3160 | – | – | –
